Experimental findings from US12285454B2, “Anti-aging chinese herb extract, extraction method and use thereof” (HEALTH LIFE BIOSCIENCES INC, priority 2019, dated 2025) are described below.

For the experiment, the target named is T1, telomerase (Homo sapiens, UniProt O14746).
T1 construct: endogenous in cells; host or cells: CCL137 normal human fibroblast cell line (ATCC)
Put plainly: Telomerase activity by PCR-ELISA (TRAP) in normal human fibroblasts. The format is cell-based. The following applies: CCL137 normal human fibroblasts, X ± S, N = 9. The text has this:
• Telomerase Activity Assay Kit (Roche, Switzerland); • CCL137 human fibroblast cell lines (American Type Culture Collection (ATCC)); • Ginseng-Astragalus membranaceus extract: the extract prepared in Example 1 of the present invention; • Astragalus membranaceus extract: the Astragalus membranaceus extract prepared in Example 3 of the present invention; • Ginseng extract: the ginseng extract prepared in Example 2 of the present invention. Method The effects of different extracts on the telomerase activity were detected by PCR-ELISA. Principle: This method is based on establishment of Telomeric Repeat Amplification Protocol (TRAP), which is used for PCR Amplification of telomerase mediated derivatives and combined with the subsequent ELISA method. […]
For the sample of each group, to the EP tube, 20 μl of the denaturing reagent were added and marked, and 5 μl of the obtained product after the PCR amplification was added. […] The absorbance value is then detected at 450 nm using the microplate reader and A690 nm was taken as a reference, and the value of the negative control will be subtracted from the absorption value for the sample of each group. […]
The test results were analyzed and processed by a SPSS18.0 statistical software. […]
The test methods and procedures for detection of the telomerase activity were the same as the Test Example 1, and the measured results were shown in Table 5.

T1 sequence (O14746 whole entry): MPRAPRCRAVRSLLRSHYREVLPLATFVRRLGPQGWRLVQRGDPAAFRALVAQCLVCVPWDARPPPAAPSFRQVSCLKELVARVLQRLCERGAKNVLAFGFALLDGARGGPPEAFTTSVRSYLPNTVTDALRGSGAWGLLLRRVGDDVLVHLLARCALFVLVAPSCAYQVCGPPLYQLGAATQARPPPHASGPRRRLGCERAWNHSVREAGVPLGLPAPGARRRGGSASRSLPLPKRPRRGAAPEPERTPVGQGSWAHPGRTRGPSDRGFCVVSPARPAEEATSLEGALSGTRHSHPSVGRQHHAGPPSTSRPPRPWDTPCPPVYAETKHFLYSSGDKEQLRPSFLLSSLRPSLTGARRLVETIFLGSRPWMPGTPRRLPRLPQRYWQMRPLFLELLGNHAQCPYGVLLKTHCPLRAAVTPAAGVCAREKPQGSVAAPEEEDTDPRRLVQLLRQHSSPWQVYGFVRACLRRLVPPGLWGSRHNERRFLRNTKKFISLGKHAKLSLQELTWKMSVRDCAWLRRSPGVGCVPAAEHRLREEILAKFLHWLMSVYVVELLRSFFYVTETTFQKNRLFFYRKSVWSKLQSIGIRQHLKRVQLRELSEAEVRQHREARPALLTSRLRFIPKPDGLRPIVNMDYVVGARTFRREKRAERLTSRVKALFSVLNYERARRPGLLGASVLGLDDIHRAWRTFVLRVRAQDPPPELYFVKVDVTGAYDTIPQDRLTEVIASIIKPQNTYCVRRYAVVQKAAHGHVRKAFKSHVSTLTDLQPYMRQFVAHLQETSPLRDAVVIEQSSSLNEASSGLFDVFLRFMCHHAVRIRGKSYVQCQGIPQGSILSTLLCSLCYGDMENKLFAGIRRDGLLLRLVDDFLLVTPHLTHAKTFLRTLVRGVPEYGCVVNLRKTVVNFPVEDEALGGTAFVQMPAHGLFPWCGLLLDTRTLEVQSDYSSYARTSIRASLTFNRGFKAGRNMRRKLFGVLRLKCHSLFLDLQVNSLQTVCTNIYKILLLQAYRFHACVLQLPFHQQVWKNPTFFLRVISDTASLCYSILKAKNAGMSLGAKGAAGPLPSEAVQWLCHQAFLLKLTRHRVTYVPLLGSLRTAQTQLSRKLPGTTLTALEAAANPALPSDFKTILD

As to Astragaloside, the “Telomerase activity (ΔA)” value was 0.436 (Table 5, high concentration group, extract concentration 100 ug/mL) and 0.453 (Table 5, medium concentration group, extract concentration 50 ug/mL).
